The target in test [1] is T1, B-Raf^V600E (Homo sapiens, UniProt P15056, V600E). Nature of the test: B-Raf^V600E kinase inhibition (literature data set). The test is classed as biochemical. The note with it: −log IC50 of literature IC50; for IC50: read-out: B-Raf Actual pIC50 (converted). How it is done:
The IC50 values of all compounds for B-Raf and KDR inhibition were converted to the −log IC50 (pIC50) as dependent variables in the 3D-QSAR analysis. The 3D structures for all 40 compounds were built and minimized, and then Gasteiger-Hückel charge was calculated. All works were all done in SYBYL 6.9 (Tripos, Inc.: St. Louis, MO, USA, 2002).

In test [2] the target is T1, B-Raf^V600E. Further details: method as in PMID 22376051, PMID 22763369, PMID 22883026, PMID 23906342. The following applies: literature values used as 3D-QSAR data set; read-out: Kinase IC50 B-Raf^V600E; cited from earlier work.
The target of test [3] is T2, VEGFR2 (Homo sapiens, UniProt P35968). Nature of the test: VEGFR2 (KDR) kinase inhibition (literature data set). The test is classed as biochemical. How it is done:
The IC50 values of all compounds for B-Raf and KDR inhibition were converted to the −log IC50 (pIC50) as dependent variables in the 3D-QSAR analysis. The 3D structures for all 40 compounds were built and minimized, and then Gasteiger-Hückel charge was calculated.

The target in test [4] is T2, VEGFR2. Further details: method as in PMID 22376051, PMID 22763369, PMID 22883026, PMID 23906342. The following applies: literature values used as 3D-QSAR data set; read-out: Kinase IC50 VEGFR2; cited from earlier work.

Read-outs that look alike come from different tables or passages of the source. Where only a bound is given, the exact number is not on record here.

T1 sequence (P15056 whole entry V600E): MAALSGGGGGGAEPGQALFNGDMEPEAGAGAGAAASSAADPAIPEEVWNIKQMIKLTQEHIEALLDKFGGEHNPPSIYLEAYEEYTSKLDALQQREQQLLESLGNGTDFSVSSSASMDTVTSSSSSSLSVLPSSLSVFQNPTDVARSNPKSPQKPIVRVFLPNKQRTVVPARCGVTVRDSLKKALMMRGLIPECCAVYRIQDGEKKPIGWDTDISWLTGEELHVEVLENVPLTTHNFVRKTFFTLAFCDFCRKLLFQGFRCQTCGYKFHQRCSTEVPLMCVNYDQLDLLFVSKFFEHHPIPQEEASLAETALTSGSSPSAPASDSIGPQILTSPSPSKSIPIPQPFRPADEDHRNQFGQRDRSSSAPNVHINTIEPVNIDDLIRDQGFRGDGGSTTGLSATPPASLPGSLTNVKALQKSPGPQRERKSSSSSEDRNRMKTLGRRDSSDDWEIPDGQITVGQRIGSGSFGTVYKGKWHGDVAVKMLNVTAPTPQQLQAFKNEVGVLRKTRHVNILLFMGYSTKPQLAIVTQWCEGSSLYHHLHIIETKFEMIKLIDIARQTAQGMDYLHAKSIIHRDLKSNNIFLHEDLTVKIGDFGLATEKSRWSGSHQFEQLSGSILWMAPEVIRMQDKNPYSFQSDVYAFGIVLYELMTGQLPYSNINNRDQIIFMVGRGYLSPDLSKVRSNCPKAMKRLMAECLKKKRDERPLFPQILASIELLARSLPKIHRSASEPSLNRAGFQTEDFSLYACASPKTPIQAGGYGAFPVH
T2 sequence (P35968 806-1171): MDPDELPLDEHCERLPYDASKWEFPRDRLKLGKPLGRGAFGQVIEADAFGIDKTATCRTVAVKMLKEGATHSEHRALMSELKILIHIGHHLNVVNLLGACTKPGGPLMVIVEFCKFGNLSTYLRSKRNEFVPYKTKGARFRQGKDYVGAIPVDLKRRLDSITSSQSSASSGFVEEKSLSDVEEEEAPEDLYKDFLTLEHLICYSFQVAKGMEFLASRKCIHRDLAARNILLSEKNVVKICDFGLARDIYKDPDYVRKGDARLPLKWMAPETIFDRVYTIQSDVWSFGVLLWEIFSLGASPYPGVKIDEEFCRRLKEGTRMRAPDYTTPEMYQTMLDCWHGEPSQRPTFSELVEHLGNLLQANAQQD

Take `O=C(Nc1cccc(Oc2ccc3nc(NC(=O)C4CCOCC4)cn3n2)c1)c1cccc(C(F)(F)F)c1` [Compound 1-1]: the results for the IC50 on B-Raf^V600E [1] and at B-Raf^V600E [2] were 42.7 nM and 43 nM, respectively.
Take `CC(=O)Nc1cn2nc(Oc3cccc(NC(=O)c4cccc(C(F)(F)F)c4)c3)ccc2n1` [Compound 1-2]: the IC50 on B-Raf^V600E [1] was 4.07 nM; on VEGFR2 [3] it was 1.1 nM; on B-Raf^V600E [2], 4.1 nM; on VEGFR2 [4], 1.1 nM.
Consider `CCC(=O)Nc1cn2nc(Oc3cccc(NC(=O)c4cccc(C(F)(F)F)c4)c3)ccc2n1` [Compound 1-3], for which the IC50 on B-Raf^V600E [1] is 6.92 nM; at VEGFR2 [3] it was 1.7 nM; on B-Raf^V600E [2], 6.9 nM; on VEGFR2 [4] it was 1.7 nM.
Regarding `O=C(Nc1cccc(Oc2ccc3nc(NC(=O)C4CC4)cn3n2)c1)c1cccc(C(F)(F)F)c1` [Compound 1-4], the IC50 at B-Raf^V600E [1] is 7.59 nM; at VEGFR2 [3], 1.91 nM; at B-Raf^V600E [2] it was 7.6 nM; on VEGFR2 [4], 1.9 nM.
`O=C(Nc1cccc(Oc2ccc3nc(NC(=O)C4CCC4)cn3n2)c1)c1cccc(C(F)(F)F)c1` [Compound 1-5]: the IC50 is 28.2 nM at B-Raf^V600E [1], 4.79 nM at VEGFR2 [3], 28 nM at B-Raf^V600E [2] and 4.8 nM on VEGFR2 [4].
Turning to `O=C(Nc1cccc(Oc2ccc3nc(NC(=O)C4CCCC4)cn3n2)c1)c1cccc(C(F)(F)F)c1` [Compound 1-6], the IC50 on B-Raf^V600E [1] was 43.7 nM; against VEGFR2 [3], 9.33 nM; on B-Raf^V600E [2], 44 nM; at VEGFR2 [4] it was 9.3 nM.
With `O=C(Nc1cccc(Oc2ccc3nc(NC(=O)C4CC4)cn3n2)c1)c1ccc(C(F)(F)F)cc1` [Compound 1-7], the IC50 at B-Raf^V600E [1] was 81.3 nM; against VEGFR2 [3], 1.91 nM; at B-Raf^V600E [2] it was 81 nM; at VEGFR2 [4] it was 1.9 nM.
As to `O=C(Nc1cccc(Oc2ccc3nc(NC(=O)C4CC4)cn3n2)c1)c1ccccc1C(F)(F)F` [Compound 1-8], the IC50 was 3720 nM on B-Raf^V600E [1], 1.41 nM against VEGFR2 [3], 3700 nM on B-Raf^V600E [2] and 1.4 nM on VEGFR2 [4].
In the case of `COc1cccc(C(=O)Nc2cccc(Oc3ccc4nc(NC(=O)C5CC5)cn4n3)c2)c1` [Compound 1-9], the IC50 on B-Raf^V600E [1] was 18.2 nM; against VEGFR2 [3], 0.309 nM; at B-Raf^V600E [2], 18 nM; on VEGFR2 [4], 0.31 nM.
With `CC(C)(C)Oc1cccc(C(=O)Nc2cccc(Oc3ccc4nc(NC(=O)C5CC5)cn4n3)c2)c1` [Compound 1-10], the IC50 on B-Raf^V600E [1] is 15.1 nM; at VEGFR2 [3], 1.82 nM; at B-Raf^V600E [2], 15 nM; on VEGFR2 [4], 1.8 nM.
For `CC(C)(O)c1cccc(C(=O)Nc2cccc(Oc3ccc4nc(NC(=O)C5CC5)cn4n3)c2)c1` [Compound 1-11], the IC50 was 10 nM at B-Raf^V600E [1], 0.813 nM at VEGFR2 [3] and 0.82 nM on VEGFR2 [4].
Turning to `CC(C)(C#N)c1cccc(C(=O)Nc2cccc(Oc3ccc4nc(NC(=O)C5CC5)cn4n3)c2)c1` [Compound 1-12], the IC50 was 14.1 nM on B-Raf^V600E [1], 1.51 nM at VEGFR2 [3], 14 nM at B-Raf^V600E [2] and 1.5 nM at VEGFR2 [4].
For the molecule `CC(C)(C#N)c1cccc(C(=O)Nc2cccc(Oc3ccc4nc(NC(=O)C5CC5)cn4c3)c2)c1` [Compound 2-1], the IC50 at B-Raf^V600E [1] was 49 nM; against VEGFR2 [3] it was 1.82 nM; at B-Raf^V600E [2] it was 49 nM; on VEGFR2 [4], 1.8 nM.
As for `CC(C)(C#N)c1cccc(C(=O)Nc2cccc(Oc3ccc4nc(NC(=O)C5CC5)[nH]c4c3)c2)c1` [Compound 2-2], the IC50 on B-Raf^V600E [1] is 40.7 nM; at VEGFR2 [3], 8.13 nM; on B-Raf^V600E [2], 41 nM; on VEGFR2 [4], 8.1 nM.
For the molecule `CC(C)(C#N)c1cccc(C(=O)Nc2cccc(Oc3ccc4nc(NC(=O)C5CC5)[nH]c4n3)c2)c1` [Compound 2-3], the IC50 at B-Raf^V600E [1] was 17 nM; against VEGFR2 [3], 3.09 nM; at B-Raf^V600E [2], 17 nM; at VEGFR2 [4], 3.1 nM.
In the case of `Cn1c(NC(=O)C2CC2)nc2ccc(Oc3cccc(NC(=O)c4cccc(C(C)(C)C#N)c4)c3)nc21` [Compound 2-4], the IC50 was 200 nM at B-Raf^V600E [1], 2.4 nM on VEGFR2 [3], 200 nM at B-Raf^V600E [2] and 2.4 nM at VEGFR2 [4].
Take `CC(C)(C#N)c1cccc(C(=O)Nc2cccc(Oc3ccc4nc(NC(=O)C5CC5)sc4c3)c2)c1` [Compound 2-5]: the IC50 at B-Raf^V600E [1] is 25.1 nM; on VEGFR2 [3], 14.1 nM; on B-Raf^V600E [2] it was 25 nM; on VEGFR2 [4] it was 14 nM.
For `N#CC1(c2cccc(C(=O)Nc3cccc(Oc4ccc5nc(NC(=O)C6CC6)sc5n4)c3)c2)CC1` [Compound 3-1], the IC50 at B-Raf^V600E [1] is 3.02 nM; against VEGFR2 [3] it was 2.19 nM; on B-Raf^V600E [2], 3 nM; at VEGFR2 [4], 2.2 nM.
Take `N#CC1(c2cccc(C(=O)Nc3cccc(Oc4ccc5nc(NC(=O)C6CC6)sc5n4)c3)c2Cl)CC1` [Compound 3-2]: the IC50 is 8.91 nM on B-Raf^V600E [1], 3.98 nM at VEGFR2 [3], 9 nM on B-Raf^V600E [2] and 4 nM at VEGFR2 [4].
`N#CC1(c2cccc(C(=O)Nc3cc(Oc4ccc5nc(NC(=O)C6CC6)sc5n4)ccc3F)c2Cl)CC1` [Compound 3-3]: the IC50 on B-Raf^V600E [1] was 7.08 nM; at VEGFR2 [3] (−log IC50 of literature IC50, read-out: KDR Actual pIC50 (converted)), 2.19 nM.
`N#CC1(c2cccc(C(=O)Nc3cc(Oc4ccc5nc(NC(=O)C6CC6)sc5n4)ccc3Cl)c2Cl)CC1` [Compound 3-4]: the IC50 was 42.7 nM on B-Raf^V600E [1], 7.59 nM on VEGFR2 [3], 43 nM at B-Raf^V600E [2] and 7.5 nM at VEGFR2 [4].
In the case of `CC(=O)Nc1nc2ccc(N(C)c3ccc(F)c(NC(=O)c4cccc(OC(C)(C)C#N)c4)c3)nc2s1` [Compound 3-6], at B-Raf^V600E [1], the “B-Raf Actual pIC50” value was determined as 7.64. Besides, the “KDR Actual pIC50” value at VEGFR2 [3] (−log IC50 of literature IC50) was 8.00.
Consider `CC(=O)Nc1nc2ccc(N(C)c3ccc(F)c(NC(=O)c4cccc(OC(C)(C)C#N)c4Cl)c3)nc2s1` [Compound 3-7], for which the “B-Raf Actual pIC50” value at B-Raf^V600E [1] is reported as 7.35. Also, the “KDR Actual pIC50” value at VEGFR2 [3] (−log IC50 of literature IC50) is reported as 7.85.
`CN(c1ccc(F)c(NC(=O)c2cccc(OC(C)(C)C#N)c2Cl)c1)c1ccc2nc(NC(=O)C3CC3)sc2n1` [Compound 3-8]: the “KDR Actual pIC50” value on VEGFR2 [3] (−log IC50 of literature IC50) worked out at 8.12.
Consider `CC(=O)Nc1nc2cnc(Oc3cc(NC(=O)c4cccc(CC(C)(C)C#N)c4)ccc3C)nc2s1` [Compound 4-2], for which the results for the IC50 at B-Raf^V600E [1], on VEGFR2 [3] and at VEGFR2 [4] were 100 nM, 302 nM and 300 nM, respectively.
In the case of `CC(C)(C#N)c1cccc(C(=O)Nc2cccc(Oc3ccc4nc(NC(=O)C5CC5)sc4c3[N+](=O)[O-])c2)c1` [Compound 5-1], at B-Raf^V600E [1], the “B-Raf Actual pIC50” value is 7.60. In addition, the “KDR Actual pIC50” value at VEGFR2 [3] (−log IC50 of literature IC50) was found to be 7.15.
As for `CC(C)(C#N)c1cccc(C(=O)Nc2cccc(Oc3ccc4nc(NC(=O)C5CC5)sc4c3C#N)c2)c1` [Compound 5-2], the “B-Raf Actual pIC50” value on B-Raf^V600E [1] amounted to 7.89. The “KDR Actual pIC50” value on VEGFR2 [3] (−log IC50 of literature IC50) is on record as 7.12.
For `COC(=O)c1c(Oc2cccc(NC(=O)c3cccc(C(C)(C)C#N)c3)c2)ccc2nc(NC(=O)C3CC3)sc12` [Compound 5-3], the “B-Raf Actual pIC50” value at B-Raf^V600E [1] is recorded as 7.92. The “KDR Actual pIC50” value on VEGFR2 [3] (−log IC50 of literature IC50) is 7.48.
In the same order, the values of `CC(C)(C#N)c1cccc(C(=O)Nc2cccc(Oc3ccc4nc(NC(=O)C5CC5)sc4c3CO)c2)c1` [Compound 5-4] are 7.62 and 8.13.
In the same order, the values of `N#Cc1c(Oc2cccc(NC(=O)Nc3ccccc3C(F)(F)F)c2)ccc2nc(NC(=O)C3CC3)sc12` [Compound 6-1] are 7.72 and 6.92.
The matching figures for `N#Cc1c(Oc2cccc(NC(=O)Nc3ccc(C(F)(F)F)cc3)c2)ccc2nc(NC(=O)C3CC3)sc12` [Compound 6-2]: 7.74 and 6.48.
As for `N#Cc1c(Oc2ccc(F)c(NC(=O)Nc3cccc(C(F)(F)F)c3)c2)ccc2nc(NC(=O)C3CC3)sc12` [Compound 6-3], on B-Raf^V600E [1], the “B-Raf Actual pIC50” value stood at 7.31. Also, the “KDR Actual pIC50” value on VEGFR2 [3] (−log IC50 of literature IC50) is recorded as 6.14.
On to `N#Cc1c(Oc2ccc(F)c(NC(=O)Nc3ccc(C(F)(F)F)cc3)c2)ccc2nc(NC(=O)C3CC3)sc12` [Compound 6-4], for which, on B-Raf^V600E [1], the “B-Raf Actual pIC50” value is recorded as 7.59. Also, the “KDR Actual pIC50” value at VEGFR2 [3] (−log IC50 of literature IC50) is reported as 6.18. On B-Raf^V600E [2], the IC50 was above 26 nM.
With `N#Cc1c(Oc2cccc(NC(=O)Cc3ccccc3C(F)(F)F)c2)ccc2nc(NC(=O)C3CC3)sc12` [Compound 6-5], the “B-Raf Actual pIC50” value on B-Raf^V600E [1] stood at 7.85. Also, the “KDR Actual pIC50” value at VEGFR2 [3] (−log IC50 of literature IC50) is listed as 7.00.
With `N#Cc1c(Oc2cccc(NC(=O)Cc3cccc(C(F)(F)F)c3)c2)ccc2nc(NC(=O)C3CC3)sc12` [Compound 6-6], the “B-Raf Actual pIC50” value at B-Raf^V600E [1] is 8.89. In addition, the “KDR Actual pIC50” value on VEGFR2 [3] (−log IC50 of literature IC50) came to 6.82.
The matching figures for `N#Cc1c(Oc2cccc(NC(=O)Cc3ccc(C(F)(F)F)cc3)c2)ccc2nc(NC(=O)C3CC3)sc12` [Compound 6-7]: 8.02 and 6.72.
The matching figures for `N#Cc1c(Oc2ccc(F)c(NC(=O)Cc3cccc(C(F)(F)F)c3)c2)ccc2nc(NC(=O)C3CC3)sc12` [Compound 6-8]: 8.62 and 6.80.
